Our source for the melting point values is a melting point compilation (Tetko et al.; mined from patent text by program, amines drawn as free bases though some values may be those of a salt).

As a reminder, the melting point is the temperature, or range, at which the solid turns liquid. In turn, `Cc1ccc(S(=O)(=O)N2[C@@H](C(N)=O)CC[C@H]2c2ccc(F)cc2)cc1` (racemic) gave a melting point of 137 °C.
In the case of `CCOC(=O)c1cnc2cc(Cl)c(F)cc2c1O`, the melting point was in the range of 283 to 290 °C.
In turn, `CNC(=S)NCCCSc1nccs1` registered a melting point of 67 to 68 °C.
In turn, `O=C1CCN(Cc2cc([N+](=O)[O-])ccc2O)CC1C(c1ccccc1)c1ccccc1` (stereo unspecified) displayed a melting point of 177 to 178 °C.
The result for `N#Cc1cccc(CN2C(=O)NC(c3ccccc3)(c3ccccc3)C2=O)c1` reads 160 to 164 °C; that for `Cc1cc(N)cc(C)c1S(=O)(=O)C[N+](=O)[O-]`, 132 to 133 °C.
The result for `COC(=O)C1=C(C)NC(C)=C(C(=O)OC)N1c1cccc(N)c1` reads 212 to 213 °C; that for `CN1CCc2c(F)c(F)c(N)c3c(=O)c(C(=O)O)cn1c23`, > 290 °C.
As for `CS(=O)(=O)NC(c1ccc(Cl)c2nc3n(c12)CCCN3c1c(Cl)cc(Cl)cc1Cl)C(F)(F)F` (stereo unspecified), the figure is 290 to 291 °C; as for `Cc1ccsc1C(=O)Nc1ccc(C(=O)N2Cc3ccccc3Cc3ccccc32)cc1`, 201 to 204 °C; as for `CN(C(=O)C(F)(F)F)c1ccc2[nH]ncc2c1`, 172 to 174 °C.
Regarding `O=C(NC[C@H]1CC[C@@H](Oc2ccc(F)cc2)CC1)c1ccc(O)cc1`, the melting point was found to be 170 °C.
As for `Cc1c(Nc2ccc(Br)cc2C(=O)O)cccc1C(F)(F)F`, the figure is 223 to 225 °C.
As for `O=C(O)c1ccccc1Nc1cccc(Br)c1`, the figure is 169 to 171 °C; as for `CN(CCCN=C(NC#N)NCCSCc1csc(NC(=N)N)n1)CCC(c1ccccc1)c1ccccn1` (stereo unspecified), 110 to 112 °C.
Take `c1ccc(P(c2ccccc2)c2c3ccccc3cc3ccccc23)cc1`: the melting point turned out to be 204 °C.
The result for `CCN(CC)CCNC(=O)c1ccc(-c2n[nH]c3c2Cc2ccccc2-3)cc1` reads 172 to 174 °C; that for `COc1ccc(NC(=O)N(Cc2ccccn2)Cc2ccc(F)cc2F)c(NC(=O)c2cc(C(C)(C)C)c(O)c(C(C)(C)C)c2)c1`, 176 to 178 °C; that for `Cc1ccc(-c2ccc(C(=O)Nc3ccc4nc(CN(C)C)ccc4c3)cn2)cc1`, 220 to 222 °C.
`CCOC(=O)c1oc(SC)c2c1CCCC2=O`: the melting point lay in the range of 123 to 124 °C.
As for `Cn1c2cc(Cl)ccc2c2c(=O)[nH]c(-c3ccccc3)nc21`, the melting point was > 300 °C.
For the compound `NC(=O)COc1ccccc1N`, the melting point amounted to 117 °C.
The result for `Cc1nc(N2CCN(Cc3ccccc3)C2=O)sc1C(=O)NCc1ccc(F)c(F)c1` reads 152 to 153 °C.
`CCN(C)c1cc(C)nc(Oc2c(C)cc(C)cc2C)c1C` gave a melting point of 173 to 174 °C.
The compound `CCCCCC(CC(=O)Nc1cc(C(N)=O)ccc1C(C)(C)C)c1cc(C(=O)OC)c(OC)cc1OC` (stereo unspecified) displayed a melting point of 101 to 103 °C.
As for `CC(=O)NC[C@H]1CN(c2ccc(N3CCC(n4nnc(N5CCN(Cc6ccccc6)CC5)n4)CC3)c(F)c2)C(=O)O1`, the figure is 202 to 204 °C.
Compound `CCN(CC)CCOc1ccc(C(O)(CC)c2ccccc2)cc1` (stereo unspecified) showed a melting point of 113 °C.
On to `COC(=O)C(C)(C)Cc1ccc2oc(-c3ccc4ccc(Cl)cc4n3)cc2c1`, for which the melting point was 137 to 138 °C.
The result for `NS(=O)(=O)c1cc(CC(=O)C=CC(=O)O)ccc1Cl` reads 217 to 218 °C; that for `COC(=O)c1cc(=O)c2cc(OC)cc([N+](=O)[O-])c2o1`, 192 to 193 °C.
As for `N#Cc1ncc(Cl)cc1OC1SCC(O)C(O)C1O` (stereo unspecified), the melting point stood at 122 °C.
For the compound `O=C(c1cc2ccc(O)cc2[nH]1)N1CCC(Cc2ccccc2)CC1`, the melting point is 214 to 215 °C.
Consider `Nc1cccc(C#CC=Cc2cccc(N)c2)c1`, for which the melting point lay in the range of 105 to 106 °C.
In turn, `CCCCOCCOc1ccc(-c2cnc3c(c2)C=C(C(=O)O)CCCN3CCC)cc1` returned a melting point of 123 to 125 °C.
Consider `CC(C)Oc1cc(CCC(=O)NS(=O)(=O)C(C)C)n(Cc2ccc(Cl)cc2Cl)n1`, for which the melting point was in the range of 135 to 136 °C.
As for `Cc1nc(C)c(-c2ccnc(Nc3ccc(Cl)c(CO)c3)n2)s1`, the figure is 245 to 246 °C; as for `CCCc1c(OCCCCCOc2ccc3c(c2CCC)OC(C(=O)O)CC3)ccc(C(C)=O)c1O` (stereo unspecified), 66 to 68 °C.
In turn, `CCCc1nc(OC)c(NC(=O)N2CCN(c3cc(OC)cc(OC)c3)CC2)cc1C` showed a melting point of 121 to 122 °C.
`COC(C)c1nc2c(N)nc3ccccc3c2n1CC(C)C` (stereo unspecified) displayed a melting point of 185 to 189 °C.
The result for `c1cc(-c2ccc3[nH]cc4c3c2C[C@@H](N(CC2CC2)CC2CC2)C4)on1` reads 146 to 147 °C; that for `CCn1c(-c2cccnc2)nc(-c2ccncc2)c1-c1ccc(Cl)cc1`, 248 to 250 °C; that for `COc1ccc(-c2nc3c(N)cccc3n2Cc2c(F)cccc2F)c(F)c1`, 200 to 202 °C.
Compound `O=C(Oc1ccccc1)N1CCC(S(=O)(=O)c2ccccc2)C1` (stereo unspecified) displayed a melting point of 84 to 85 °C.
As for `OCc1ccc2c(c1)Nc1nccnc1S2`, the figure is 187 to 189 °C.
The result for `CCOC(=O)CCNC(=O)Nc1ccccc1CCc1cc(C(C)(C)C)c(O)c(C(C)(C)C)c1` reads 158 to 159 °C.
The result for `CCOCc1nc(C(C)(C)O)c(C(=O)O)n1Cc1ccc(-c2ccccc2C(=O)O)cc1` reads 166 to 169 °C.
`CSc1ccc(C=C2CCc3cc(OCCn4ccnc4)ccc3C2=O)s1` yielded a melting point of 102 to 104 °C.
Consider `CC(=O)NC[C@H]1CN(c2ccc(I)c(F)c2)C(=O)O1`, for which the melting point amounted to 186 °C.
The compound `COC(=O)CCN(CC(=O)O)CC(=O)O` showed a melting point of 141 °C.
The result for `CCn1ncc2c3noc(-c4ccccc4C)c3cnc21` reads 168 to 170 °C; that for `COc1ccc(C2(Cn3ccnc3)CC(CNc3ccccc3C)ON2C)cc1` (stereo unspecified), 110 to 111 °C; that for `COc1ccc2c(c1)N(Cc1ccccc1)C(=O)C1CCCC1=N2` (stereo unspecified), 105 to 107 °C.
The result for `CCOC(=O)C1=C(N(C)C)N=C(C)C(C(=O)OCC)C1c1ccccc1C` (stereo unspecified) reads 88 °C.
As for `Cc1cnc2c(C(N)=O)cnn2c1-c1cccc(C(F)(F)F)c1`, the figure is 237 to 239 °C.
In turn, `CCN1C(=O)C(C)(C)c2cc(-c3nc4ccccc4[nH]3)ccc21` came in with a melting point of 263 to 265 °C.
The result for `COc1ccc2c(c1)CN(C(C)=O)N=C2Cc1c(Cl)cncc1Cl` reads 186 to 188 °C; that for `COc1ccccc1Sc1ccc2c(c1)CCC1N(C)C(=O)CCC21C` (single isomer, unassigned; (+)), 166 to 168 °C; that for `Cc1nc2cc(CN3CCN(C(c4ccccc4)c4ccccc4)CC3)ccc2n1CCSc1ccccc1`, 170 °C.
`Nc1nccc(Oc2ccc3c(c2)CCCN3)n1` came in with a melting point of 180 to 182 °C.
The result for `C=CCOC(=O)c1ccc(OC(=O)c2ccc(O[Si](C)(C)C(C)(C)C)c(C34CC5CC(CC(C5)C3)C4)c2)nc1` reads 130 to 132 °C; that for `Cn1nc(C(=O)NCc2ccc(Cl)cc2)c(=O)c2cc(C#CCO)ccc21`, 229 to 231 °C.
As to `COC(=O)CCC1(NC(=O)c2cc3c4ccccc4n(C(C)=O)c3cn2)C(=O)N(c2ccccc2)c2ccccc21` (stereo unspecified), the melting point lay in the range of 189 to 192 °C.
For `Cc1cc(-c2cc(C(F)(F)F)nn2-c2ccc(S(N)(=O)=O)c(F)c2)ccc1-c1cscn1`, the melting point was in the range of 125 to 127 °C.
The result for `O=C1/C(=C/c2ccccc2)N2CCC1CC2` reads 130 to 132 °C; that for `COC1=CC(=O)N(Cc2ncn(C(c3ccccc3)(c3ccccc3)c3ccccc3)c2C)CC1`, 181 to 184 °C.
The result for `O=C(O)Cc1cc(Br)cc(Br)c1OCCc1ccccc1` reads 81 to 84 °C.
As for `CS(=O)(=O)N(c1cc2c(cc1Oc1ccccc1)C(C#N)CC2)S(C)(=O)=O` (stereo unspecified), the melting point was found to be 200 °C.
As for `O=P(O)(O)COc1ccc(-c2c3ccccc3cc3sc4ccccc4c23)cc1`, the figure is 240 to 242 °C.
`CCCCC(NC(=O)C(CC(C)C)NC(=O)COc1ccc2ccccc2c1)C(=O)CSCc1ccco1` (stereo unspecified): the melting point fell in the range of 87 to 89 °C.
As for `C=CCSCC(N)C(=O)O` (stereo unspecified), the figure is 212 to 213 °C; as for `CC(C)Cc1csc2[nH]c(=O)c(=O)[nH]c12`, > 270 °C.
The result for `O=C(OCc1ccc[nH]c1=O)c1ccc(F)cc1` reads 170 to 173 °C; that for `CCCCCCCCCCCCCCCCOc1cc(O)c(NC(C)=O)cc1C12CC3CC(CC(C3)C1)C2`, 146 to 148 °C.
As for `CCOC(=O)Cc1cnc(C(C)(C)C)nc1Cl`, the figure is 42 to 44 °C; as for `CSc1ccc(F)c(C#N)c1`, 61.7 to 62.7 °C.
For `Cc1nn(-c2ccc(F)cc2)cc1C(=O)Nc1ccc(OCC(C)(C)C)c(Br)c1`, the melting point was in the range of 193 to 194 °C.
As for `COc1cc(OC)nc(Oc2ccccc2C=NO)n1`, the figure is 125 to 128 °C; as for `CCOCc1nc2c(N(Cc3ccccc3)Cc3ccccc3)nc(C)cc2n1NC(=O)OC(C)(C)C`, 139 to 141 °C.
The result for `CCOCCOc1ccc(-c2ccc3c(c2)C=C(C(=O)Nc2ccc(CN(C)C4CCOCC4)cc2)CCS3(=O)=O)cc1` reads 215 to 217 °C; that for `CC(C)(C)OC(=O)NCCNC(=O)c1cocn1`, 148 to 150 °C.
The result for `Cc1cc(-c2ccc(C(F)(F)F)cc2)cc(-c2cccc(-c3ccnc(N)c3)n2)n1` reads 160 °C; that for `COc1ccc(Cn2nnc(-c3ccc(C(F)(F)F)cc3F)c2N)cc1`, 153 to 154 °C.
Turning to `CC(C)C(C)NC1=NS(=O)(=O)c2cc([N+](=O)[O-])ccc2N1` (stereo unspecified), the melting point was 308 to 311 °C.
As for `CC(C)(C)OC(=O)CCNC1(c2ccccc2Cl)C(=O)Nc2ccc(Cl)cc21` (stereo unspecified), the figure is 188 °C.
The compound `Cc1cc(C)c(Nc2nc(C)ccc2S(=O)(=O)c2ccc(OCc3c(F)cccc3[N+](=O)[O-])cc2)c(C)c1` returned a melting point of 132 to 134 °C.
The result for `CN1CCc2c(c3ccc(-n4ccc(-c5ccc(C(F)(F)F)nc5)cc4=O)cc3n2C)C1` reads 295 to 300 °C.
